Results published in ChEMBL document CHEMBL5678810.

Assays:
[1] = molecular target: Serine/threonine-protein kinase 16 (Homo sapiens) (UniProt O75716); test: Inhibition of T7 bacteriophage fused human STK16 at 10 uM by KINOMEscan analysis relative to control
[2] = molecular target: Serine/threonine-protein kinase MARK2 (Homo sapiens) (UniProt Q7KZI7); test: Inhibition of T7 bacteriophage fused human MARK2 at 10 uM by KINOMEscan analysis relative to control
[3] = molecular target: Membrane-associated tyrosine- and threonine-specific cdc2-inhibitory kinase (Homo sapiens) (UniProt Q99640); test: Inhibition of T7 bacteriophage fused human PKMYT1 at 10 uM by KINOMEscan analysis relative to control
[4] = molecular target: Mitogen-activated protein kinase 4 (Homo sapiens) (UniProt P31152); test: Inhibition of T7 bacteriophage fused human ERK4 at 10 uM by KINOMEscan analysis relative to control
[5] = test system: Mast/stem cell growth factor receptor Kit (Homo sapiens), P10721 [V559D]; test: Inhibition of T7 bacteriophage fused human KIT V559D mutant at 10 uM by KINOMEscan analysis relative to control
[6] = molecular target: Focal adhesion kinase 1 (Homo sapiens) (UniProt Q05397); test: Inhibition of T7 bacteriophage fused human FAK at 10 uM by KINOMEscan analysis relative to control; values are per cent of control
[7] = test system: Epidermal growth factor receptor (Homo sapiens), P00533 [L858R,T790M]; test: Inhibition of T7 bacteriophage fused human EGFR L858R/T790M mutant at 10 uM by KINOMEscan analysis relative to control
[8] = molecular target: Casein kinase II subunit alpha (Homo sapiens) (UniProt P68400); test: Inhibition of T7 bacteriophage fused human CSNK2A1 at 10 uM by KINOMEscan analysis relative to control
[9] = molecular target: Serine/threonine-protein kinase Nek3 (Homo sapiens) (UniProt P51956); test: Inhibition of T7 bacteriophage fused human NEK3 at 10 uM by KINOMEscan analysis relative to control
[10] = molecular target: Phosphorylase b kinase gamma catalytic chain, liver/testis isoform (Homo sapiens) (UniProt P15735); test: Inhibition of T7 bacteriophage fused human PHKG2 at 10 uM by KINOMEscan analysis relative to control
[11] = test system: Proto-oncogene tyrosine-protein kinase receptor Ret (Homo sapiens), P07949 [M918T]; test: Inhibition of T7 bacteriophage fused human RET M918T mutant at 10 uM by KINOMEscan analysis relative to control
[12] = molecular target: Glycogen synthase kinase-3 beta (Homo sapiens) (UniProt P49841); test: Inhibition of T7 bacteriophage fused human GSK3B at 10 uM by KINOMEscan analysis relative to control; values are per cent of control
[13] = molecular target: Dual specificity protein kinase CLK2 (Homo sapiens) (UniProt P49760); test: Inhibition of T7 bacteriophage fused human CLK2 at 10 uM by KINOMEscan analysis relative to control; values are per cent of control
[14] = molecular target: Ribosomal protein S6 kinase alpha-1 (Homo sapiens) (UniProt Q15418); test: Inhibition of T7 bacteriophage fused human C-terminal RSK1 Kinase domain-2 at 10 uM by KINOMEscan analysis relative to control
[15] = molecular target: Serine/threonine-protein kinase PAK 6 (Homo sapiens) (UniProt Q9NQU5); test: Inhibition of T7 bacteriophage fused human PAK6 at 10 uM by KINOMEscan analysis relative to control
[16] = molecular target: Tyrosine-protein kinase JAK1 (Homo sapiens) (UniProt P23458); test: Inhibition of T7 bacteriophage fused human JAK1JH2 pseudokinase domain at 10 uM by KINOMEscan analysis relative to control
[17] = molecular target: Serine/threonine-protein kinase BRSK1 (Homo sapiens) (UniProt Q8TDC3); test: Inhibition of T7 bacteriophage fused human BRSK1 at 10 uM by KINOMEscan analysis relative to control
[18] = molecular target: Epithelial discoidin domain-containing receptor 1 (Homo sapiens) (UniProt Q08345); test: Inhibition of T7 bacteriophage fused human DDR1 at 10 uM by KINOMEscan analysis relative to control
[19] = molecular target: Serine/threonine-protein kinase Nek7 (Homo sapiens) (UniProt Q8TDX7); test: Inhibition of T7 bacteriophage fused human NEK7 at 10 uM by KINOMEscan analysis relative to control
[20] = molecular target: Fibroblast growth factor receptor 1 (Homo sapiens) (UniProt P11362); test: Inhibition of T7 bacteriophage fused human FGFR1 at 10 uM by KINOMEscan analysis relative to control; values are per cent of control
[21] = test system: Tyrosine-protein kinase ABL1 (Homo sapiens), P00519 [Q252H]; test: Inhibition of T7 bacteriophage fused human phosphorylated ABL1 Q252H mutant at 10 uM by KINOMEscan analysis relative to control
[22] = molecular target: Casein kinase I isoform gamma-2 (Homo sapiens) (UniProt P78368); test: Inhibition of T7 bacteriophage fused human CSNK1G2 at 10 uM by KINOMEscan analysis relative to control
[23] = molecular target: Serine/threonine-protein kinase PAK 2 (Homo sapiens) (UniProt Q13177); test: Inhibition of T7 bacteriophage fused human PAK2 at 10 uM by KINOMEscan analysis relative to control
[24] = molecular target: Non-receptor tyrosine-protein kinase TNK1 (Homo sapiens) (UniProt Q13470); test: Inhibition of T7 bacteriophage fused human TNK1 at 10 uM by KINOMEscan analysis relative to control
[25] = molecular target: Serine/threonine-protein kinase pim-2 (Homo sapiens) (UniProt Q9P1W9); test: Inhibition of T7 bacteriophage fused human PIM2 at 10 uM by KINOMEscan analysis relative to control
[26] = test system: Fibroblast growth factor receptor 3 (Homo sapiens), P22607 [G697C]; test: Inhibition of T7 bacteriophage fused human FGFR3 G697C mutant at 10 uM by KINOMEscan analysis relative to control
[27] = molecular target: Rhodopsin kinase GRK1 (Homo sapiens) (UniProt Q15835); test: Inhibition of T7 bacteriophage fused human GRK1 at 10 uM by KINOMEscan analysis relative to control; values are per cent of control
[28] = molecular target: Insulin receptor (Homo sapiens) (UniProt P06213); test: Inhibition of T7 bacteriophage fused human INSR at 10 uM by KINOMEscan analysis relative to control; values are per cent of control
[29] = molecular target: Serine/threonine-protein kinase 38-like (Homo sapiens) (UniProt Q9Y2H1); test: Inhibition of T7 bacteriophage fused human NDR2 at 10 uM by KINOMEscan analysis relative to control
[30] = molecular target: Protein-tyrosine kinase 2-beta (Homo sapiens) (UniProt Q14289); test: Inhibition of T7 bacteriophage fused human PYK2 at 10 uM by KINOMEscan analysis relative to control
[31] = molecular target: Cyclin-dependent kinase 18 (Homo sapiens) (UniProt Q07002); test: Inhibition of T7 bacteriophage fused human PCTK3 at 10 uM by KINOMEscan analysis relative to control

Sequence of Rhodopsin kinase GRK1 (Homo sapiens) (Q15835 whole entry, the tested form may be a part): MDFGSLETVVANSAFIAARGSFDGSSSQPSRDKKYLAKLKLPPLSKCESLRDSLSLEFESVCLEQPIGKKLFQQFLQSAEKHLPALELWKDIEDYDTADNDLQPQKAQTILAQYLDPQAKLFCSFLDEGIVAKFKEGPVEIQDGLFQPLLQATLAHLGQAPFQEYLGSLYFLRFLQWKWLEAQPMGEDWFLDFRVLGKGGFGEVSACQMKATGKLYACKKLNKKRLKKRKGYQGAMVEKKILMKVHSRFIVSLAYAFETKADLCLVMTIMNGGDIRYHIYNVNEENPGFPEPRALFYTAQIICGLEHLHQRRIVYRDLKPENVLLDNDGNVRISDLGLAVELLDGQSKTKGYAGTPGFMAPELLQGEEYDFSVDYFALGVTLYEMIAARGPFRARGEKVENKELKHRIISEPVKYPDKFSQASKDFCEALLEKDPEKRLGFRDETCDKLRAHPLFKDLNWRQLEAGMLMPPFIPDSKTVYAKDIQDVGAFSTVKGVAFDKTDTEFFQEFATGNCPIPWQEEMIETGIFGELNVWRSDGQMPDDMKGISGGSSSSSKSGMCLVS
Sequence of Epidermal growth factor receptor (Homo sapiens), P00533 [L858R,T790M] (P00533 whole entry T790M/L858R, looked up, the tested form may be a part): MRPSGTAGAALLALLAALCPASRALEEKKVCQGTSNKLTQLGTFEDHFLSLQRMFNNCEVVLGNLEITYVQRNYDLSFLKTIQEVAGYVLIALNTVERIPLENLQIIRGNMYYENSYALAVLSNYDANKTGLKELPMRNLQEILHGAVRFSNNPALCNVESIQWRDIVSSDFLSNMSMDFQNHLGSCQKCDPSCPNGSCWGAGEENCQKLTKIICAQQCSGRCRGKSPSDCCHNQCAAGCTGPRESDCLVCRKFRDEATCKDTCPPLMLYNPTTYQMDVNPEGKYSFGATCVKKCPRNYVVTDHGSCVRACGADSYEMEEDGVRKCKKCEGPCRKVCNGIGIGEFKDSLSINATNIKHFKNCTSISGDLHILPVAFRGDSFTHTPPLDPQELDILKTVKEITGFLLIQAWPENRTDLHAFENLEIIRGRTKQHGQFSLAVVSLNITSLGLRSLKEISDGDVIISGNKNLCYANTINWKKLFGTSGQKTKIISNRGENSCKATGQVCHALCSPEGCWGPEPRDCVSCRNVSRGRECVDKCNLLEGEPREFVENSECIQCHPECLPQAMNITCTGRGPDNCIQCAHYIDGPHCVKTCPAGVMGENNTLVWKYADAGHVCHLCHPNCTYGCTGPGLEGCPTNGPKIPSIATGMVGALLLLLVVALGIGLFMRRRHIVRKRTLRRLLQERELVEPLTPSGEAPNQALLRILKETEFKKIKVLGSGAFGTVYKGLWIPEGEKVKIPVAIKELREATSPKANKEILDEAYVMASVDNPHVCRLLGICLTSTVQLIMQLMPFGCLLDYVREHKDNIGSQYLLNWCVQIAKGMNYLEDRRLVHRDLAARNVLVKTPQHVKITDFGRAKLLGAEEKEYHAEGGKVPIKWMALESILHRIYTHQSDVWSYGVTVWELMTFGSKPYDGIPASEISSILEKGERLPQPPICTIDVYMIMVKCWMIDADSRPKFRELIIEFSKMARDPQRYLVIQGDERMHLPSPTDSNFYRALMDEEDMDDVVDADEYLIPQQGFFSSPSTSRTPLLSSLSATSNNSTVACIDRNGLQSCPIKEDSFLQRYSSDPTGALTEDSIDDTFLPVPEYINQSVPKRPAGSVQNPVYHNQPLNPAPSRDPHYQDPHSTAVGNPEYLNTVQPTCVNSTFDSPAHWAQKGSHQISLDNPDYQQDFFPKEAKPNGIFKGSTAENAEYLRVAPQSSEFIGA
Sequence of Mast/stem cell growth factor receptor Kit (Homo sapiens), P10721 [V559D] (P10721 whole entry V559D, the tested form may be a part): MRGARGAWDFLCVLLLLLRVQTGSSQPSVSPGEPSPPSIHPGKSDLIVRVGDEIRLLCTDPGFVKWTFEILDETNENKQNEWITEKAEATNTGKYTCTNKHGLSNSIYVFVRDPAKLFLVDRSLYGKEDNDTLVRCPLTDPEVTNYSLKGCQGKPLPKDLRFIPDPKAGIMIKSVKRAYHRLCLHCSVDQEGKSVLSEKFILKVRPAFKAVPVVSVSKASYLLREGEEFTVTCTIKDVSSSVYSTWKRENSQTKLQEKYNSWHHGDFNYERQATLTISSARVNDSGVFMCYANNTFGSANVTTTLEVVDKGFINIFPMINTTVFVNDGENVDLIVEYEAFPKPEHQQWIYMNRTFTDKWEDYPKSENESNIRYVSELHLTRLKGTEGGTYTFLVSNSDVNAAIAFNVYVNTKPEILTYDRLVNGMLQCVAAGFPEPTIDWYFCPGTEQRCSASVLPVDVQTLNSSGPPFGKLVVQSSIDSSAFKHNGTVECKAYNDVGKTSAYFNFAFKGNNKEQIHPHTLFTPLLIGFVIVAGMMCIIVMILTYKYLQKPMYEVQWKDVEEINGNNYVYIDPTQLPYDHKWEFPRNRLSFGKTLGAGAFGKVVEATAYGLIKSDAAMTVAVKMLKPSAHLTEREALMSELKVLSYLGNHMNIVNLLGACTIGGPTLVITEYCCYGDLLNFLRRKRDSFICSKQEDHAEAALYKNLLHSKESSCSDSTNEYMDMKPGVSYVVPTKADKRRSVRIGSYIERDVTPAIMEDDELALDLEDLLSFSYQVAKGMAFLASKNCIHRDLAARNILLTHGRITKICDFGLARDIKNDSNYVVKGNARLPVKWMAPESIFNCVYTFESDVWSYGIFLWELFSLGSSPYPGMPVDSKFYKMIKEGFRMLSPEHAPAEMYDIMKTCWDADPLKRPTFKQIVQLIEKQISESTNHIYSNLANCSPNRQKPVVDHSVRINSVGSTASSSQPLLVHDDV
Sequence of Serine/threonine-protein kinase BRSK1 (Homo sapiens) (Q8TDC3 whole entry, the tested form may be a part): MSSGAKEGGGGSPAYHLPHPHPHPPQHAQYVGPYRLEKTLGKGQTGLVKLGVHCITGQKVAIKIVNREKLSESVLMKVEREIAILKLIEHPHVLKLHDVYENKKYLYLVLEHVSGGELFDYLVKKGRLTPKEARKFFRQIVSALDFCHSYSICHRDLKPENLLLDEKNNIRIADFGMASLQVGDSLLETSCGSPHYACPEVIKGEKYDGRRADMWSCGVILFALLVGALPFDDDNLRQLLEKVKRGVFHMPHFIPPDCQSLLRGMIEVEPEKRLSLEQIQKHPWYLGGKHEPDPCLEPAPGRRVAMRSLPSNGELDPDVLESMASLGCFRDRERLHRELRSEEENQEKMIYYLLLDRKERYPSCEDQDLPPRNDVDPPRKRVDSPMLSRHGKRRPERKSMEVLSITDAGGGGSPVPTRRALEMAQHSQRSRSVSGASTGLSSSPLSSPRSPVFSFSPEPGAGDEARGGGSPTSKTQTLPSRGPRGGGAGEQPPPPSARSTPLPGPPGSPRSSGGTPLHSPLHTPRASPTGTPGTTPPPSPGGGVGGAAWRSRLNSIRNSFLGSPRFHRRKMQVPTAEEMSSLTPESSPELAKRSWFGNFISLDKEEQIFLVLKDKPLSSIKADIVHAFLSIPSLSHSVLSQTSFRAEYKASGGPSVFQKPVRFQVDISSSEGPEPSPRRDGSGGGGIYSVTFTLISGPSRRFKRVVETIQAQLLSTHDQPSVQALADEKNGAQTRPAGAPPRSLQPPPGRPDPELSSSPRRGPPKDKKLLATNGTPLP
Sequence of Serine/threonine-protein kinase Nek3 (Homo sapiens) (P51956 whole entry, the tested form may be a part, canonical isoform): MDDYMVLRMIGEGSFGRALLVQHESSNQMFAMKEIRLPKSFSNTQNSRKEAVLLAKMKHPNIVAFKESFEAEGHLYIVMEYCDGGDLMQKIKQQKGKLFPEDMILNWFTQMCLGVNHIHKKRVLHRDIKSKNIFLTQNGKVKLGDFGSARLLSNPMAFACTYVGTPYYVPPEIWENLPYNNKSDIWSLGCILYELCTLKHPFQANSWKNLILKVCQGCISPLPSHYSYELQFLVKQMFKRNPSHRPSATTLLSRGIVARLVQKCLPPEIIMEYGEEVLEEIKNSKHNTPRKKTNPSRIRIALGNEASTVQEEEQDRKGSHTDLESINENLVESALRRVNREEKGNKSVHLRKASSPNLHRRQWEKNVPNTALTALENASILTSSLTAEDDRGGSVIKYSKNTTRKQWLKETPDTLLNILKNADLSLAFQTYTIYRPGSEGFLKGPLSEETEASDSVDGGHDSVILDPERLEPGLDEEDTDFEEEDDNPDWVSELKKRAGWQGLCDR
Sequence of Casein kinase II subunit alpha (Homo sapiens) (P68400 whole entry, looked up, the tested form may be a part): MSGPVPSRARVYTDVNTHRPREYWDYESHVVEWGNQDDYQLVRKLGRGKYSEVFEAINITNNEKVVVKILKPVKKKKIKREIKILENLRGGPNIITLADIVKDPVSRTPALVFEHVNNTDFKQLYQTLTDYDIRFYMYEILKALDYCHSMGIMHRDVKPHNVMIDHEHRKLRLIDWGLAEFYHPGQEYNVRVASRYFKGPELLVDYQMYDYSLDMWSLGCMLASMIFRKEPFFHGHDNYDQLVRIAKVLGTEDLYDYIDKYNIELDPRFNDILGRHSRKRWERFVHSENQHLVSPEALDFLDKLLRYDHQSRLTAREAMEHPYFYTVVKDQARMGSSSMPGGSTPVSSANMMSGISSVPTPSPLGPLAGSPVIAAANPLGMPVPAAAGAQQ
Sequence of Serine/threonine-protein kinase PAK 2 (Homo sapiens) (Q13177 whole entry, the tested form may be a part): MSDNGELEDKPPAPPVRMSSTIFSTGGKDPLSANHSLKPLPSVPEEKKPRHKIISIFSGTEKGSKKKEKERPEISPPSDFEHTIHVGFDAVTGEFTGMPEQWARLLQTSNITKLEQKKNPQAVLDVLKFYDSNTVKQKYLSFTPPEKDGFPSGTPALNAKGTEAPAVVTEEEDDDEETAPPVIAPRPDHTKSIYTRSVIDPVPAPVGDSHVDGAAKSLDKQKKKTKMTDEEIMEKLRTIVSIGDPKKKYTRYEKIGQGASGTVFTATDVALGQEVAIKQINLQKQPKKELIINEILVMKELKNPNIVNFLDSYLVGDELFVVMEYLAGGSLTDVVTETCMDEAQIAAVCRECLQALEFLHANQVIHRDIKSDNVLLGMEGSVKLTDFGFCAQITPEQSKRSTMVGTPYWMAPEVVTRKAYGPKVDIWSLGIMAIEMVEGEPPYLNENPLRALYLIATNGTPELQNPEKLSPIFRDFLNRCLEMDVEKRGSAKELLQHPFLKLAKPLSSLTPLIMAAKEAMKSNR

For `COc1cc(N2CCC(N3CCN(C)CC3)CC2)ccc1Nc1ncc2c(n1)N(C)c1ccccc1C(=O)N2C`, the inhibition [1] was 62%, the inhibition [2] was 100% and the inhibition [3] was 80%. For the same compound, the inhibition [4] was 100%, the inhibition [5] was 100% and the residual activity [6] was 34%. It also gave an inhibition [7] of 84%, an inhibition [8] of 100% and an inhibition [9] of 100%. It also gave an inhibition [10] of 33%, an inhibition [11] of 100% and a residual activity [12] of 88%. The residual activity [13] was 72%, the inhibition [14] was 10% and the inhibition [15] was 98%. For the same compound, the inhibition [16] was 92%, the inhibition [17] was 81% and the inhibition [18] was 100%. The inhibition [19] was 100%, the residual activity [20] was 86% and the inhibition [21] was 100%. It also gave an inhibition [22] of 100%, an inhibition [23] of 65% and an inhibition [24] of 2.8%. It also gave an inhibition [25] of 100%, an inhibition [26] of 85% and a residual activity [27] of 91%. It also gave a residual activity [28] of 84%, an inhibition [29] of 100% and an inhibition [30] of 78%. The inhibition [31] was 100%.
